One series concerns 10-12 kDa immunophilin. Put plainly: Rotamase (peptidyl-prolyl cis-trans isomerase) assay, 10-12 kDa immunophilin. The class given is biochemical. More on the design: key: no activity observed. The note with it: rotamase activity with this peptide as substrate. Here is the method: (§1) Rotamase activity (cis-trans peptidyl-prolyl isomerase activity) may be assayed in purified immunophilins using the methods of Fischer et al., Nature, 337:476 (1989) and Lange et al., Nature 4 331:453 (1988), which are incorporated herein by reference.
(§2) Only peptidyl propyl cis-trans isomerase activity to kobs values of greater than about 0.5 min^-1 are considered significant. Values below this are not considered to be due to the catalytic properties of the protein being analyzed.

For series [1], the system named is calf thymus 50-54 kDa immunophilin. Put plainly: Rotamase (peptidyl-prolyl cis-trans isomerase) assay, 50-54 kDa immunophilin. The note with it: rotamase activity with this peptide as substrate. On the set-up: key: no activity observed. Format: biochemical. Here is the method: as §1, §2
Series [2] concerns 50-54 kDa binding protein (JURKAT cells). In words: Scatchard / direct binding to purified 50-54 kDa immunophilin.
Protocol: (§3) Association constants, specific binding activities, and numbers and types of binding sites can be obtained from Scatchard and Hill plots, using EBDA and LIGAND software.
(§4) Bound and free ligand were separated using the above-described LH-20 system.
(§5) The binding proteins purified in Example 5 were incubated with increasing amounts of labeled ligand and the binding data analyzed according to Scatchard.
The test system of series [3] is purified 50-54 kDa binding protein (JURKAT cells). In words: Binding competition curves, purified 50-54 kDa binding protein, LH-20 separation. How it is done:
Binding of [^3 H-dihydro]-FK506 to this protein was inhibited in a dose-dependent manner by rapamycin (B50 =0. 1 nM), whereas binding of [^3 H]-CSA to this protein was not affected by rapamycin at concentrations as high as 300 nM.

Series [4] concerns JURKAT cell cytosol protein fractions. Put plainly: Binding and competition in JURKAT cytosol protein fractions. On the set-up: competition for CsA binding to 16-18 kDa and 50-54 kDa fractions / inhibition of [3H-dihydro]-FK-506 binding in all fractions: unit of the concentration uncertain. How it is done: This fraction (3.02 mg in 2.7 mL) was then passed through a BioSil-125 HPLC column at a flow rate of 1.0 mL/minute of 10 mM phosphate buffer, pH 6.8. Those fractions around the expected molecular weight (around 50 kDa) were tested for binding to [^3 H]

Series [5] concerns 34-37 kDa immunophilin (Jurkat cells). In words: Radioreceptor assay / Scatchard analysis, purified 34-37 kDa immunophilin. Format: binding. How it is done: Receptor density (Bmax), affinity (Kd) and Hill coefficients (nH) were obtained using EBDA and Ligand computer programs. Radioreceptor assay: The radioreceptor assay was done in a final volume of 250 μl. […] To assess total binding, 25 μL of 50 % ethanol alone was added to maintain a constant level of ethanol in the reaction. 100-150 μL of 5 mM phosphate buffer, pH 6.8, containing 0.2% Tween 20, was added. 2-5 μg protein solution in 50-100 μL was added to obtain a final reaction volume of 250 μL. Following a 20 minute incubation at 25° C. on a shaker, 200 μL of the reaction mixture was added to Sephadex LH-20 columns (Pharmacia Biotech, Piscataway, N.J., U.S.A.,1.8 mL bed volume) equilibrated with LH-20 assay buffer (20 mM Tris buffer, pH 7.2, 5 mM β-mercaptoethanol and 0.05% sodium azide).
SDS-PAGE electrophoresis: The protein from the gel filtration fraction was analyzed for purity using 10% SDS-PAGE electrophoresis in the presence and absence of mercaptoethanol and visualized using DAIICHI-II silver staining. […] The data were analyzed using EBDA and Ligand computer programs.

The test system of series [6] is 50-54 kDa binding protein (JURKAT cells).
Protocol: as §3, §4, §5
Series [7] can be described thus: Storage stability of FK-506 in frozen blood. The note with it: frozen (-20° C.) blood. The class given is physicochemical. Here is the method: The competition-type PBA was conducted as follows. […] Following a 20-minute incubation at 25° C., 100 μL of a reaction mixture was added to a 1.8 mL bed volume Sephadex LH-20 column preequilibrated with 20 mM Tris buffer, pH 7.2-5 mM 2-mercaptoethanol-0.05% NaN3. Elution with five 250 μL portions of this buffer completely separated free from protein-bound radioligand. The protein-bound radioactivity in the 1.25 mL of eluate was measured in 10 mL Optima Gold Scintillation Cocktail (Packard Chemicals, Meriden, Conn.) in a liquid scintillation spectrometer operating at 59% counting efficiency. […] All analyses were performed in duplicate.

In series [8] the target is 10-12 kDa binding protein (JURKAT cells) (Homo sapiens, UniProt P62942). The settings on record: Scatchard analysis, 10-12 kDa (8-12 kDa) protein.
10-12 kDa binding protein (JURKAT cells), sequence (P62942 whole entry): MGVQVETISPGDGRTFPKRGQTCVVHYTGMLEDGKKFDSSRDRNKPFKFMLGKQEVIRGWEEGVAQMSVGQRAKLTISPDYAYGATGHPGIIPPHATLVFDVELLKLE
Protocol: as §3, §5

Several values for one entry are separate records, joined by “and”; a condition that tells them apart may be missing. Equal entries are not always repeated. Where two headings read alike, the source gives them in different places. Starred links: 1 amine or outer side, 2 acyl side, 3 side chain; linkers in the order of their positions; H or OH if unused. Residues, ends and D or L forms follow the SMILES beside them. *: point of attachment. pNA = O=[N+]([O-])c1ccc(N*)cc1; Suc = O=C(CCC(=O)[*:2])[*:1]

On to `C[C@H](NC(=O)CCC(=O)O)C(=O)NCC(=O)N1CCC[C@H]1C(=O)N[C@@H](Cc1ccccc1)C(=O)Nc1ccc([N+](=O)[O-])cc1` [Suc--Ala--Gly--Pro--Phe--pNA] (Suc-AGPF-pNA), for which the “kobs, 10-12 kDa” value with 10-12 kDa immunophilin is given as “a”. In addition, the “kobs, 50-54 kDa” value in series [1] worked out at 0.00667 s⁻¹.
On the same counts, the results for `C[C@H](NC(=O)CCC(=O)O)C(=O)N[C@@H](CCC(=O)O)C(=O)N1CCC[C@H]1C(=O)N[C@@H](Cc1ccccc1)C(=O)Nc1ccc([N+](=O)[O-])cc1` [Suc--Ala--Glu--Pro--Phe--pNA] (Suc-AEPF-pNA) are “a” and “a”.
For the compound `C[C@H](NC(=O)CCC(=O)O)C(=O)N[C@@H](CCCCN)C(=O)N1CCC[C@H]1C(=O)N[C@@H](Cc1ccccc1)C(=O)Nc1ccc([N+](=O)[O-])cc1` [Suc--Ala--Lys--Pro--Phe--pNA], the “kobs, 10-12 kDa” value with 10-12 kDa immunophilin turned out to be 0.36 min^-1. Besides, in series [1], the “kobs, 50-54 kDa” value came out at 0.004 s⁻¹.
On the same counts, the results for `C[C@H](NC(=O)CCC(=O)O)C(=O)N[C@@H](Cc1c[nH]cn1)C(=O)N1CCC[C@H]1C(=O)N[C@@H](Cc1ccccc1)C(=O)Nc1ccc([N+](=O)[O-])cc1` [Suc--Ala--His--Pro--Phe--pNA] (Suc-AHPF-pNA) are “a” and 0.001 s⁻¹.
On the same counts, the results for `CC(C)C[C@H](NC(=O)[C@H](C)NC(=O)CCC(=O)O)C(=O)N1CCC[C@H]1C(=O)N[C@@H](Cc1ccccc1)C(=O)Nc1ccc([N+](=O)[O-])cc1` [Suc--Ala--Leu--Pro--Phe--pNA] (Suc-ALPF-pNA) are 1.61 min^-1 and 0.00267 s⁻¹.
For `C[C@H](NC(=O)CCC(=O)O)C(=O)N[C@@H](Cc1ccccc1)C(=O)N1CCC[C@H]1C(=O)N[C@@H](Cc1ccccc1)C(=O)Nc1ccc([N+](=O)[O-])cc1` [Suc--Ala--Phe--Pro--Phe--pNA], in that order: 3.0 min^-1 and 0.003 s⁻¹.
As for `CO[C@H]1C[C@@H]2CC[C@@H](C)[C@@](O)(O2)C(=O)C(=O)N2CCCC[C@H]2C(=O)O[C@H]([C@H](C)C[C@@H]2CC[C@@H](O)[C@H](OC)C2)CC(=O)[C@H](C)/C=C(\C)[C@@H](O)[C@@H](OC)C(=O)[C@H](C)C[C@H](C)/C=C/C=C/C=C/1C` [rapamycin], the “binding to purified 50-54 kDa binding protein” value in series [2] is “bound”. Besides, the Kd in [2] (read-out: dissociation constant, 50-54 kDa protein, unit inferred) was in the range of 0.1 to 0.2 nM. Moreover, in [3] (1.8 pmol [3H-dihydro]-FK-506, 15 minutes at 25° C., read-out: B50, inhibition of [3H-dihydro]-FK506 binding), the IC50 was 0.1 nM. Also, in series [3] (concentrations as high as 300 nM), the “effect on binding of [3H]-CSA to the 50-54 kDa protein” value was “not affected”. The “inhibition of [3H-dihydro]-FK-506 binding in all fractions” value in series [4] (0.7 (unit uncertain)) is reported as “inhibited”. The “competition for CsA binding to 16-18 kDa and 50-54 kDa fractions” value in series [4] (70 (unit uncertain)) is “did not compete”.
For the compound `C[C@H](NC(=O)CCC(=O)O)C(=O)N[C@@H](Cc1c[nH]c2ccccc12)C(=O)N1CCC[C@H]1C(=O)N[C@@H](Cc1ccccc1)C(=O)Nc1ccc([N+](=O)[O-])cc1` [Suc--Ala--Trp--Pro--Phe--pNA] (Suc-AWPF-pNA), the “kobs, 10-12 kDa” value in the series on 10-12 kDa immunophilin is 0.21 min^-1. In series [1], the “kobs, 50-54 kDa” value amounted to 0.00233 s⁻¹.
On the same counts, the results for `O=C(O)CCC(=O)N[C@@H](Cc1ccccc1)C(=O)N1CCC[C@H]1C(=O)N[C@@H](Cc1ccccc1)C(=O)Nc1ccc([N+](=O)[O-])cc1` [Suc--Phe--Pro--Phe--pNA] (Suc-Phe-Pro-Phe-pNA) are 0.63 min^-1 and 0.001 s⁻¹.
With `CCC[C@@H]1/C=C(\C)C[C@H](C)C[C@H](OC)[C@H]2O[C@@](O)(C(=O)C(=O)N3CCCC[C@H]3C(=O)O[C@H](/C(C)=C/[C@@H]3CC[C@@H](O)[C@H](OC)C3)[C@H](C)[C@@H](O)CC1=O)[C@H](C)C[C@@H]2OC` [tritiated dihydro FK506], in series [5] (saturation experiments, 0.25 to 20 nM), the Kd is 4.5 nM.
As to `[3H]CC([3H])C[C@@H]1/C=C(\C)C[C@H](C)C[C@H](OC)[C@H]2O[C@@](O)(C(=O)C(=O)N3CCCC[C@H]3C(=O)O[C@H](/C(C)=C/[C@@H]3CC[C@@H](O)[C@H](OC)C3)[C@H](C)[C@@H](O)CC1=O)[C@H](C)C[C@@H]2OC` (stereo partly drawn) [tritiated dihydro FK506], in series [5] (saturation experiments), the Hill coefficients result was “near unity”.
`C=CCC1C=C(C)CC(C)CC(OC)C2OC(O)(C(=O)C(=O)N3CCCCC3C(=O)OC(C(C)=CC3CCC(O)C(OC)C3)C(C)C(O)CC1=O)C(C)CC2OC` (stereo not drawn) [FK-506, tacrolimus]: in [2], the “binding to purified 50-54 kDa binding protein” value was “bound”. Also, the Kd in series [6] was 1 to 10 nM and ~2 nM. In series [7], the “time without variability in assay results on storage” value is “at least 30 days”. The “inhibition of binding of [3H]-CsA to the 50-54 kDa protein” value in series [3] (all concentrations tested) was “inhibited”. The “displacement of bound radioligand from the binding sites” value in series [5] (1 μM unlabelled drug, 20 min) is greater than 95%. Besides, in series [8], the “binding capacity / specific binding activity” value is listed as “about 0.5 nmol/mg”. Further, in series [4] (isoelectric focusing fraction at pH 6.29), the “inhibition of binding of [3H]-CSA” value is “inhibited”.
As for `CC[C@H](C)[C@H](NC(=O)[C@H](C)NC(=O)CCC(=O)O)C(=O)N1CCC[C@H]1C(=O)N[C@@H](Cc1ccccc1)C(=O)Nc1ccc([N+](=O)[O-])cc1` [Suc--Ala--Ile--Pro--Phe--pNA] (Suc-AIPF-pNA), the “kobs, 10-12 kDa” value with 10-12 kDa immunophilin was found to be 0.69 min^-1. For the same compound, in series [1], the “kobs, 50-54 kDa” value was 0.00033 s⁻¹.
Consider `C[C@H](NC(=O)CCC(=O)O)C(=O)N[C@@H](CCC(N)=O)C(=O)N1CCC[C@H]1C(=O)N[C@@H](Cc1ccccc1)C(=O)Nc1ccc([N+](=O)[O-])cc1` [Suc--Ala--Gln--Pro--Phe--pNA] (Suc-AQPF-pNA), for which the “kobs, 10-12 kDa” value in the series on 10-12 kDa immunophilin is reported as 0.23 min^-1. For the same compound, the “kobs, 50-54 kDa” value in [1] stood at 0.00367 s⁻¹.
For `CC(C)C[C@H](NC(=O)[C@@H]1CCCN1C(=O)[C@H](C)NC(=O)[C@H](C)NC(=O)CCC(=O)O)C(=O)Nc1ccc([N+](=O)[O-])cc1` [Suc--Ala--Ala--Pro--Leu--pNA] (Suc-AAPL-pNA), in that order: 0.93 min^-1 and 0.0075 s⁻¹.
On the same counts, the results for `CCCC[C@H](NC(=O)[C@H](C)NC(=O)CCC(=O)O)C(=O)N1CCC[C@H]1C(=O)N[C@@H](Cc1ccccc1)C(=O)Nc1ccc([N+](=O)[O-])cc1` [Suc--Ala--Nle--Pro--Phe--pNA] are 0.58 min^-1 and 0.00417 s⁻¹.

The values are drawn from patent publication US5780307A, “Immunosuppressive drug binding proteins and use” (priority 1996, dated 1998).
